{
  "source": "patent US20210379062A1",
  "about": "“The use of a H3R inverse agonist for the treatment of excessive daytime sleepiness associated with parkinson's disease (PD)” (Novartis AG, priority 2018, published 2021)",
  "target": "T1, Human histamine H3 receptor (Homo sapiens, UniProt Q9Y5N1)",
  "T1 construct": "purchased PerkinElmer",
  "T1 sequence (Q9Y5N1 whole entry)": "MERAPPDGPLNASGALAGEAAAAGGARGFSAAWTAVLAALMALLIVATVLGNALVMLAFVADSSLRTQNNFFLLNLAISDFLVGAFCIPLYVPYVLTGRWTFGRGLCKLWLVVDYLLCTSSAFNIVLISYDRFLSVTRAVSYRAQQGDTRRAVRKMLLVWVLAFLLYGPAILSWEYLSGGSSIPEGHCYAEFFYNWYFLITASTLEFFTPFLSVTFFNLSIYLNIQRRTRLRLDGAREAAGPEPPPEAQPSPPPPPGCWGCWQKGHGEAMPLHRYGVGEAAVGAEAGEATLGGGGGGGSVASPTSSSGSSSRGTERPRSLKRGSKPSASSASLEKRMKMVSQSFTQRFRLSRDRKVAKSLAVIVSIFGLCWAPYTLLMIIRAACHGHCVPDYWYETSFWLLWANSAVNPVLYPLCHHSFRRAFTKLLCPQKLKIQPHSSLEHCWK",
  "test": "Radioligand binding assay with [3H]-N-α-methylhistamine",
  "procedure": "Human histamine H3 receptor membrane (PerkinElmer) were incubated with 1.0 nM [^3H]—N-α-methylhistamine (PerkinElmer) in the presence or absence of increasing concentrations of ligands for H3 receptor competition binding. The binding incubations were in a final volume of 0.1 ml buffer (50 mMTris pH 7.5, 5 mM MgCl2) at 28° C. for 120 minutes. Thioperamide (10 μM) was used to define non-specific binding.\nAll binding reactions were terminated by transferring 70 μl binding reaction from the reaction plate into filtration plates (Zeba 96-well Spin Desalting Plates, Thermo Scientific), followed by centrifugation at 1000 g for 2 min to collect the protein with bound radioligand. 200 μl of microscint-40 were added to determine the bound radiolabel by a Wallac Microbeta Trilux 2450 (Perkin Elmer). For all radioligand competition binding assays, IC50 values and Hill slopes were determined by GraphPad Prism: log(inhibitor) vs. response with variable slope. Ki was calculated using the equation in Biochem. Pharmacol. 1973. 22 (23), 3099-3108, from Cheng and Prusoff: Ki=IC50/{1+([radioligand]/Kd)}.",
  "data": [
    {"compound": "Cn1nc(N2CCC(OC(=O)N3CCN(C4CCC4)CC3)CC2)ccc1=O", "note": "[Compound (I), 1-(1-methyl-6-oxo-1,6-dihydropyridazin-3-yl)piperidin-4-yl 4-cyclobutylpiperazine-1-carboxylate]", "values": [
      {"measurement": "affinity fold higher compared to bavisant", "setting": "human H3 receptors", "result": 12, "unit": "fold"},
      {"measurement": "affinity fold higher compared to pitolisant", "setting": "human H3 receptors", "result": 18, "unit": "fold"},
      {"measurement": "Ki", "setting": "human recombinant H3R, 1.0 nM [3H]-N-α-methylhistamine, Cheng-Prusoff", "result": 8.5, "unit": "nM"}
    ]}
  ]
}
